Reference: patent US20230293407A1, “Compositions Comprising (Bio)-Alkanediols with Antimicrobials for Product Protection” (Symrise AG, priority 2020, published 2023)

Tests used:
Experiment in all cases: preservation efficacy test (PET), European Pharmacopoeia 5.1.3
Format in all cases: cell-based
[1] = system: Pseudomonas aeruginosa; conditions: for count at 2 days / count at 7 days / count at 14 days / count at 28 days: PA, use concentration in label; for germ count PA, 2 days / germ count PA, 7 days / germ count PA, 14 days / germ count PA, 28 days: o/w emulsion (Table 53)
[2] = system: Escherichia coli; conditions: for count at 2 days / count at 7 days / count at 14 days / count at 28 days: EC, use concentration in label; for germ count EC, 2 days / germ count EC, 7 days / germ count EC, 14 days / germ count EC, 28 days: o/w emulsion (Table 53); for EC germ count, 2 days / EC germ count, 7 days / EC germ count, 14 days / EC germ count, 28 days: substance at given % in test formulation
[3] = system: Candida albicans; conditions: for count at 7 days / count at 14 days / count at 28 days: CA, use concentration in label
[4] = system: Staphylococcus aureus; conditions: for count at 2 days / count at 7 days / count at 14 days / count at 28 days: SA, use concentration in label; for germ count SA, 2 days / germ count SA, 7 days / germ count SA, 14 days / germ count SA, 28 days: o/w emulsion (Table 53)
[5] = 28 days after inoculation, o/w emulsion (Table 53)
[6] = 28 days after inoculation, substance at given % in test formulation
[7] = 2 days after inoculation, substance at given % in test formulation
[8] = 7 days after inoculation, substance at given % in test formulation
[9] = 14 days after inoculation, substance at given % in test formulation

CCCCCC(O)CO (stereo not shown) [0.4 % 1,2-heptanediol]
count at 2 days ([1]; 2 days after inoculation): 1
count at 7 days ([1]; 7 days after inoculation): 1
count at 14 days ([1]; 14 days after inoculation): 1
count at 28 days ([1]; 28 days after inoculation): 1
count at 2 days ([2]; 2 days after inoculation): 140
count at 7 days ([2]; 7 days after inoculation): 1
count at 14 days ([2]; 14 days after inoculation): 1
count at 28 days ([2]; 28 days after inoculation): 1
count at 7 days ([3]; 7 days after inoculation): 39.000
count at 14 days ([3]; 14 days after inoculation): 590
count at 28 days ([3]; 28 days after inoculation): 27
count at 2 days ([4]; 2 days after inoculation): 1
count at 7 days ([4]; 7 days after inoculation): 1
count at 14 days ([4]; 14 days after inoculation): 1
count at 28 days ([4]; 28 days after inoculation): 1

CC(C)(C)C(=O)C(Oc1ccc(Cl)cc1)n1ccnc1 (stereo not shown) [0.4% Climbazole]
count at 28 days ([1]; 28 days after inoculation): 940.000
count at 2 days ([2]; 2 days after inoculation): 940.000
count at 7 days ([2]; 7 days after inoculation): 810.000
count at 14 days ([2]; 14 days after inoculation): 690
count at 28 days ([2]; 28 days after inoculation): 1
count at 14 days ([3]; 14 days after inoculation): 760.000
count at 28 days ([3]; 28 days after inoculation): 72.000
count at 2 days ([4]; 2 days after inoculation): 340.000
count at 7 days ([4]; 7 days after inoculation): 1
count at 14 days ([4]; 14 days after inoculation): 1
count at 28 days ([4]; 28 days after inoculation): 1

CCCCC(O)C(C)O (stereo not shown) [0.4% 2,3 Heptandiol]
count at 2 days ([1]; 2 days after inoculation): 1
count at 7 days ([1]; 7 days after inoculation): 1
count at 14 days ([1]; 14 days after inoculation): 1
count at 28 days ([1]; 28 days after inoculation): 1
count at 7 days ([2]; 7 days after inoculation): 1
count at 14 days ([2]; 14 days after inoculation): 1
count at 28 days ([2]; 28 days after inoculation): 1
count at 14 days ([3]; 14 days after inoculation): 39.000
count at 28 days ([3]; 28 days after inoculation): 76.000
count at 7 days ([4]; 7 days after inoculation): 1
count at 14 days ([4]; 14 days after inoculation): 1
count at 28 days ([4]; 28 days after inoculation): 1

CCCCC(CC)COCC(O)CO (stereo not shown) [Ethylhexlglycerin, Ethylhexylglycerin, reference compound]
germ count PA, 2 days ([1]; 2 days after inoculation): 1
germ count PA, 7 days ([1]; 7 days after inoculation): 1
germ count PA, 14 days ([1]; 14 days after inoculation): 1
germ count PA, 28 days ([1]; 28 days after inoculation): 1
number of microorganisms, 2 days ([1]; PET, Pseudomonas aeruginosa (PA), 2 days after inoculation): 1
number of microorganisms, 7 days ([1]; PET, Pseudomonas aeruginosa (PA), 7 days after inoculation): 1
number of microorganisms, 14 days ([1]; PET, Pseudomonas aeruginosa (PA), 14 days after inoculation): 1
number of microorganisms, 28 days ([1]; PET, Pseudomonas aeruginosa (PA), 28 days after inoculation): 1
germ count EC, 2 days ([2]; 2 days after inoculation): 10.000
germ count EC, 7 days ([2]; 7 days after inoculation): 82
germ count EC, 14 days ([2]; 14 days after inoculation): 1
germ count EC, 28 days ([2]; 28 days after inoculation): 1
number of microorganisms, 2 days ([2]; PET, Escherichia coli (EC), 2 days after inoculation): 10.000
number of microorganisms, 7 days ([2]; PET, Escherichia coli (EC), 7 days after inoculation): 82
number of microorganisms, 14 days ([2]; PET, Escherichia coli (EC), 14 days after inoculation): 1
number of microorganisms, 28 days ([2]; PET, Escherichia coli (EC), 28 days after inoculation): 1
germ count CA, 28 days [3, 5]: 950.000
number of microorganisms, 28 days ([3]; PET, Candida albicans (CA), 28 days after inoculation): 950.000
germ count SA, 2 days ([4]; 2 days after inoculation): 240.000
germ count SA, 7 days ([4]; 7 days after inoculation): 36
germ count SA, 14 days ([4]; 14 days after inoculation): 1
germ count SA, 28 days ([4]; 28 days after inoculation): 1
number of microorganisms, 2 days ([4]; PET, Staphylococcus aureus (SA), 2 days after inoculation): 240.000
number of microorganisms, 7 days ([4]; PET, Staphylococcus aureus (SA), 7 days after inoculation): 36
number of microorganisms, 14 days ([4]; PET, Staphylococcus aureus (SA), 14 days after inoculation): 1
number of microorganisms, 28 days ([4]; PET, Staphylococcus aureus (SA), 28 days after inoculation): 1

CCCCCC(O)CO (stereo not shown) [0.2% 1.2-heptanediol]
EC germ count, 2 days ([2]; 2 days after inoculation): 780.000
EC germ count, 7 days ([2]; 7 days after inoculation): 83.000
EC germ count, 14 days ([2]; 14 days after inoculation): 11.000
EC germ count, 28 days ([2]; 28 days after inoculation): 180
CA germ count, 28 days [3, 6]: 310.000
SA germ count, 2 days [4, 7]: 12.000
SA germ count, 7 days [4, 8]: 1

CCCCCCC(O)C(C)O (stereo not shown) [0.2% 2,3 Nonanediol]
germ count PA, 2 days ([1]; 2 days after inoculation): 1
germ count PA, 7 days ([1]; 7 days after inoculation): 1
germ count PA, 14 days ([1]; 14 days after inoculation): 1
germ count PA, 28 days ([1]; 28 days after inoculation): 1
germ count EC, 2 days ([2]; 2 days after inoculation): 860.000
germ count EC, 7 days ([2]; 7 days after inoculation): 230.000
germ count EC, 14 days ([2]; 14 days after inoculation): 760
germ count EC, 28 days ([2]; 28 days after inoculation): 1
germ count CA, 7 days ([3]; 7 days after inoculation, o/w emulsion (Table 53)): 440.000
germ count CA, 14 days ([3]; 14 days after inoculation, o/w emulsion (Table 53)): 160.000
germ count CA, 28 days [3, 5]: 3.800
germ count SA, 2 days ([4]; 2 days after inoculation): 880
germ count SA, 7 days ([4]; 7 days after inoculation): 1
germ count SA, 14 days ([4]; 14 days after inoculation): 1
germ count SA, 28 days ([4]; 28 days after inoculation): 1

Cc1cc(O)ccc1C(C)C [0.1% o-Cymen-5-ol]
count at 7 days ([1]; 7 days after inoculation): 250.000
count at 14 days ([1]; 14 days after inoculation): 900.000
count at 28 days ([1]; 28 days after inoculation): 460.000
count at 7 days ([2]; 7 days after inoculation): 270.000
count at 14 days ([2]; 14 days after inoculation): 270.000
count at 28 days ([2]; 28 days after inoculation): 51.000
count at 28 days ([3]; 28 days after inoculation): 690.000
count at 7 days ([4]; 7 days after inoculation): 18.000
count at 14 days ([4]; 14 days after inoculation): 1
count at 28 days ([4]; 28 days after inoculation): 1

CCCCCCCC(=O)OCC(O)CO (stereo not shown) [0.1% glyceryl caprylate]
PA germ count, 2 days [1, 7]: 1.800
PA germ count, 7 days [1, 8]: 690
PA germ count, 14 days [1, 9]: 2.400
PA germ count, 28 days [1, 6]: 39.000
EC germ count, 2 days ([2]; 2 days after inoculation): 1
EC germ count, 7 days ([2]; 7 days after inoculation): 1
EC germ count, 14 days ([2]; 14 days after inoculation): 1
EC germ count, 28 days ([2]; 28 days after inoculation): 1
CA germ count, 2 days [3, 7]: 990.000
CA germ count, 7 days [3, 8]: 690.000
CA germ count, 14 days [3, 9]: 280.000
CA germ count, 28 days [3, 6]: 220.000
SA germ count, 2 days [4, 7]: 15.000
SA germ count, 7 days [4, 8]: 1
SA germ count, 14 days [4, 9]: 1
SA germ count, 28 days [4, 6]: 1

CC(C)=CCC/C(C)=C/CC/C(C)=C/CO [0.3% farnesol]
count at 2 days ([1]; 2 days after inoculation): 460.000
count at 7 days ([1]; 7 days after inoculation): 380.000
count at 14 days ([1]; 14 days after inoculation): 610.000
count at 28 days ([1]; 28 days after inoculation): 65.000
count at 7 days ([2]; 7 days after inoculation): 390.000
count at 14 days ([2]; 14 days after inoculation): 12.000
count at 28 days ([2]; 28 days after inoculation): 1.000
count at 7 days ([3]; 7 days after inoculation): 880.000
count at 2 days ([4]; 2 days after inoculation): 720.000
count at 7 days ([4]; 7 days after inoculation): 52.000
count at 14 days ([4]; 14 days after inoculation): 100.000
count at 28 days ([4]; 28 days after inoculation): 33.000
